Experiments:
[1] = Absorption spectra / extinction coefficients; assay type: physicochemical
Method: Absorption spectra were recorded in a 1-cm path length cuvette (Hellma, 104.002B-QS) on a SPECORD®-205 spectrometer from Analytik Jena.
The Extinction coefficients of the flourophores fluorescein, 5-carboxyfluorescein (5-CF), 5-carboxy Oregon Green™ (5-COG), 5-amido N-propyl Oregon Green (5-POG; Example 2) and 5-amido N-propyl fluorescein (5-PFA; Example 3) were measured in 0.1 M NaOH solution at pH 12.7.
The extinction coefficients of the pro-fluorophores 5-thiourea N-propyl fluorescein diacetate (5-PFDAT; Example 5), 5-propyl carboxylate fluorescein diacetate (5-PFDAE; Example 8), 5-amido N-propyl fluorescein diacetate (5-PFDA; Example 7), 5-carboxy Oregon Green diacetate (5-COGDA; Example 9), 5-amido N-propyl Oregon Green diacetate (5-POGDA; Example 6) and 5-amido N-propyl Oregon Green acetoxymethylester (5-POGAM; Example 10) were measured in PBS buffer containing 0.6 % glutaraldehyde at pH 7.

[2] = Fluorometric measurements / quantum yield; assay type: physicochemical; conditions: for Φ (quantum yield): 1 µM in 0.1 M NaOH at pH 12.7, excitation 488 nm, standard fluorescein, n = 3; for λem / λex: 0.1 M NaOH at pH 12.7
Method: Fluorometric measurements were made using fluorescence grade quartz cuvette and FluoroLog®-3 spectrofluorometer from Horiba Jobin Yvon equipped with sample stirring. The quantum yields (QY) of 5-CF, 5-COG, 5-POG and 5-PFA were measured with samples at 1 µM (absorbance 488 nm ≤ 0.2) in 0.1 M NaOH at pH 12.7. Every sample and the standard (fluorescein) was prepared freshly before use. In this study, fluorescein in 0.1 M NaOH at pH 12.7 was the reference system with a known quantum yield (Φ = 0.925).
Quantum yield measurements were done using standard absorption and emission spectrometers. Emission spectra range was between the wavelengths 498 - 600 nm and excitation wavelength was 488 nm for the samples and fluorescein. The refractive indices of the samples and fluorescein solutions were the same since they were prepared in the same buffer. Under these conditions, quantum yields were calculated by using the equation: Φ^i = (F^ifs/F^sfi)*Φ^s [formula]
wherein Φ^i and Φ^s are the photoluminescence QY of the sample and standard (fluorescein), respectively; F^i and F^s are the integrated intensities (areas) of sample and fluorescein spectra, respectively; and fi and fs are the absorption factor of the sample and fluorescein, respectively, with fi or s = 1-10^-Ai or s, wherein A = absorbance.
The same experiment was repeated three times (n = 3).

[3] = tested on: Bacillus subtilis (B. subtilis) (ATCC 6633); test: Bacteria staining test, fluorescence microscopy; assay type: cell-based; conditions: Fig. 3d, comparison between pro-fluorophores
Method: (§1) Escherichia coli (E. coli) (ATCC 8739) and Bacillus subtilis (B. subtilis) (ATCC 6633) strains were routinely grown in Luria Bertani (LB) broth or on LB agar plates for 18h at 37 °C. Waterborne environmental bacteria such as Enterobacter cloacae (E. cloacae), Chryseobacterium indologenes (C. indologenes), Pseudomonas aeruginosa (P. aeruginosa), and E. coli (EC18) were purchased from Eurofins™. Environmental bacteria were grown in LB broth or on casein-peptone soymeal-peptone agar plates for 18h at 37 °C.
(§2) For the staining tests, E. coli (ATCC 8739 or EC18), E. cloacae, C. indologenes, P. aeruginosa and B. subtilis were cultivated in Luria-Bertani (LB) broth until exponential phase at 37°C with shaking at 300 rpm revolutions per minutes (rpm). Bacteria were harvested and washed in sterile phosphate buffer saline solution (PBS) at pH […] by centrifugation at 10000 rpm for 3 min at room temperature (21 ± 2 °C). Then the bacteria were resuspended in PBS at a concentration of 1·10^9 bacteria/ml. Bacteria concentration was calculated according to the turbidity measure at 660 nm (A660nm=1 correspond to bacterial suspension at ∼ 5·10^8 bacteria/ ml).
(§3) Dead bacterial suspensions at 1·10^9 bacteria/ml (negative controls) of these five species of bacteria were prepared individually by addition of 20 µl of bleach containing 2.6 % active chlorine. Bacteria were treated with bleach solution for 15 min. Dead bacteria were washed twice in sterile PBS by centrifugation at 10000 rpm for 3 min at room temperature. The culturability of the negative controls was assessed by plating 100 µl of bacterial suspension onto LB agar or Caso agar and incubating the plates at 37 °C for 72 h.
(§4) Bacteria (100 µl suspension at 1·10^9 bacteria/ml) were stained with 10 µM or 15 µM of pro-fluorophore (5-CFDA, 5-PFDAE, 5-PFDAT, 5-PFDA, 5-COGDA, 5-POGDA or 5-POGAM) in 200 µl of PBS solution containing 0.6 % of glutaraldehyde. Bacteria were incubated at 37 °C for 10 - 60 min with pro-fluorophore in darkness. After bacterial staining, they were washed and resuspended in 100 µl of PBS as described above.
(§5) Staining of the bacterial suspension was observed under a fluorescent microscope. These bacteria were imaged with a Leica DM5500 microscope equipped with FITC filter. […] Images were collected with a 100x objective. Fluorescence intensity of stained bacterial suspension was also measured with FluoroLog®-3 (Horiba Jobin Yvon) spectrofluorometer equipped with sample stirring. Samples were placed in fluorescence grade quartz cuvette having a volume of 1 ml. The excitation wavelength used was 488 nm and emission wavelength used was 517 nm. The same experiment was repeated three times (n = 3).

E. coli (ATCC 8739) [4] = test: Labeling of viable E. coli, fluorescence intensity by spectrofluorometer; assay type: cell-based, Escherichia coli
Method: as §2, §3
[…] Bacteria were incubated at 37 °C for 10 - 60 min with pro-fluorophore in darkness. After bacterial staining, they were washed and resuspended in 100 µl of PBS as described above.
as §5
Viable or dead E. coli (ATCC 8739) were incubated with different pro-fluorophores (10 - 15 µM) for 30 min at 37 °C. After washes, fluorescence of the E. coli suspension was measured with a FluoroLog®-3 spectrofluorometer (excitation wavelength: 488 nm, emission wavelength: 517 nm). Relative rates of viable E. coli fluorescence intensity were calculated by normalizing the difference of viable E. coli fluorescence intensity and dead E. coli fluorescence intensity with 5-CFDA staining.
Viable E. coli (ATCC 8739) were incubated with different pro-fluorophores (15 µM) at 37 °C for 10 - 60 min. After washes, E. coli fluorescence suspension was measured with FluoroLog®-3 spectrofluorometer (excitation wavelength: 488 nm, emission wavelength: 517 nm).

[5] = Short-term chemical stability (spontaneous fluorescence generation) in aqueous buffer; assay type: physicochemical; conditions: for chemical stability in aqueous solution (in words): PBS solution containing 0.6 % glutaraldehyde, 37°C
Method: The short-term chemical stability of the pro-fluorophores of the present invention in an aqueous buffer was evaluated by fluorometric measurement analysis after several minutes of storage at 37°C.
Each pro-fluorophore (5-CFDA, 5-PFDAE, 5-PFDAT, 5-PFDA, 5-COGDA, 5-POGDA, 5-POGAM) was dissolved in dimethylsulfoxide (DMSO) in order to prepare a 10 mM stock solution. Short-term stability studies (0-60 min) were performed in the absence of light at 37°C. The pro-fluorophore stock solutions were diluted into a PBS solution containing 0.6 % of glutaraldehyde (pH ∼7). The pro-fuorophore final concentration was 15 µM. Samples were stored in a fluorescence grade quartz cuvette having a volume of 1 ml. Fluorescence emission spectra between 500 and 540 nm were recorded every 10 minutes. The excitation wavelength used was 488 nm. Fluorometric measurement were made with a FluoroLog®-3. (Horiba Jobin Yvon) spectrofluorometer equipped with sample stirring. The same experiment was repeated three times (n = 3).
Thus, the slope of the straight line corresponds to the speed of spontaneous fluorescence generation.

E. coli (ATCC 8739) [6] = test: Labeling of viable or dead E. coli, fluorescence microscopy; assay type: cell-based, Escherichia coli; conditions: 15 µM, 30 min at 37 °C, Figure 4
Method: as §1, §2, §3, §4, §5
The pro-fluorophores according to the present invention are preferably used to label E. coli cells. Viable or dead E. coli (ATCC 8739) are incubated with these fluorophores and commercial 5-CFDA as described above. […] Glutaraldehyde is added to the incubation solutions to improve the retention of the fluorophores in bacteria.
Bacteria were washed before being imaged with a Leica DM5500 microscope, 100x objective. Scale bars indicate 10 µm.

[7] = fluorophores, 0.1 M NaOH solution at pH 12.7
[8] = pro-fluorophores, PBS buffer containing 0.6 % glutaraldehyde at pH 7

Row | E (extinction coefficient) [1, 7] [M⁻¹ cm⁻¹] | λAbs max [1, 7] [nm] | Φ (quantum yield) [2] | λem [2] [nm] | λex [2] [nm] | E (extinction coefficient) [1, 8] [M⁻¹ cm⁻¹] | λAbs max [1, 8] [nm] | Structure (SMILES) | staining of viable E. coli (microscopy) (E. coli (ATCC 8739) [6]) | other results
1 | 76474 ± 4009 | 493 | 0.963 ± 0.004 | 517 ± 0.6 | 491 ± 0.7 | – | – | O=C(O)c1ccc2c(c1)C(=O)OC21c2ccc(O)cc2Oc2cc(O)ccc21 [Example 5-CF, 5-carboxyfluorescein, reference compound] | – | –
2 | – | – | – | – | – | – | – | CC(=O)Oc1ccc2c(c1)Oc1cc(OC(C)=O)ccc1C21OC(=O)c2cc(C(=O)O)ccc21 [Example 5-CFDA, 5-carboxyfluorescein diacetate, reference compound] | – | fluorescence intensity of the stained B. subtilis [3]: higher than the staining with 5-POGDA and 5-POGAM
3 | 83136 ± 4452 | 493 | 0,912 ± 0.011 | 517 ± 0.4 | 491 ± 1.2 | – | – | O=C(O)c1ccc2c(c1)C(=O)OC21c2cc(F)c(O)cc2Oc2cc(O)c(F)cc21 [Example 5-COG, 5-carboxy Oregon Green™, reference compound] | – | –
4 | 73490 ± 8454 | 495 | 0,835 ± 0.002 | 518 ± 0.4 | 493 ± 0.3 | – | – | CCCNC(=O)c1ccc2c(c1)C(=O)OC21c2ccc(O)cc2Oc2cc(O)ccc21 [Example 5-PFA, 3',6'-dihydroxy-3-oxo-N-propyl-3H-spiro[isobenzofuran-1,9'-xanthene]-5-carboxamide] | – | –
5 | – | – | – | – | – | 9284 ± 758 | 291 | CCCNC(=O)c1ccc2c(c1)C(=O)OC21c2ccc(OC(C)=O)cc2Oc2cc(OC(C)=O)ccc21 [Example 5-PFDA, 3-oxo-5-(propylcarbamoyl)-3H-spiro[isobenzofuran-1,9'-xanthene]-3',6'-diyl diacetate] | specifically stained with high fluorescence intensity | viable E. coli fluorescence intensity compared with 5-CFDA over incubation time (E. coli (ATCC 8739) [4]; 15 µM, 37 °C, incubation for 10 to 60 min, Figure 6): higher fluorescence intensity than incubation with 5-CFDA
6 | – | – | – | – | – | 7903 ± 761 | 295 | CCCOC(=O)c1ccc2c(c1)C(=O)OC21c2ccc(OC(C)=O)cc2Oc2cc(OC(C)=O)ccc21 [Example 5-PFDAE, 3-oxo-5-(propoxycarbonyl)-3H-spiro[isobenzofuran-1,9'-xanthene]-3',6'-diyl diacetate] | weaker green fluorescence, as compared to 5-CFDA staining | chemical stability in aqueous solution (in words) [5]: remarkable stability; fluorescence signal of dead E. coli (microscopy) (E. coli (ATCC 8739) [6]): No fluorescence signal of dead bacteria was detected
7 | – | – | – | – | – | – | – | CCCNC(=S)Nc1ccc2c(c1)C(=O)OC21c2ccc(OC(C)=O)cc2Oc2cc(OC(C)=O)ccc21 [Example 5-PFDAT, 3-oxo-5-(3-propylthioureido)-3H-spiro[isobenzofuran-1,0'-xanthene]-3',6'-diyl diacetate] | become fluorescent | fluorescence signal of dead E. coli (microscopy) (E. coli (ATCC 8739) [6]): become fluorescent
8 | 74835 ± 4762 | 495 | 0,902 ± 0.013 | 518 ± 1.1 | 493 ± 0.6 | – | – | CCCNC(=O)c1ccc2c(c1)C(=O)OC21c2cc(F)c(O)cc2Oc2cc(O)c(F)cc21 [Example 5-POG, 2',7'-difluoro-3',6'-dihydroxy-3-oxo-N-propyl-3H-spiro[isobenzofuran-1,9'-xanthene]-5-carboxamide] | – | –

Row | Structure (SMILES) | E (extinction coefficient) [1, 7] [M⁻¹ cm⁻¹] | λAbs max [1, 7] [nm] | Φ (quantum yield) [2] | λem [2] [nm] | λex [2] [nm] | E (extinction coefficient) [1, 8] [M⁻¹ cm⁻¹] | λAbs max [1, 8] [nm] | staining of viable E. coli (microscopy) (E. coli (ATCC 8739) [6]) | other results
9 | CC(=O)Oc1cc2c(cc1F)C1(OC(=O)c3cc(C(=O)O)ccc31)c1cc(F)c(OC(C)=O)cc1O2 [Example 5-COGDA, 3',6'-diacetoxy-2',7'-difluoro-3-oxo-3H-spiro[isobenzofuran-1,9'-xanthene]-5-carboxylic acid] | – | – | – | – | – | 6979 ± 282 | 300 | specifically stained with high fluorescence intensity | viable E. coli fluorescence intensity relative to 5-CFDA staining (E. coli (ATCC 8739) [4]; 10 - 15 µM, 30 min at 37 °C, excitation 488 nm, emission 517 nm, Figure 5): between two and three times higher; chemical stability in aqueous solution (in words) [5]: less stable; relative speed of spontaneous fluorescence generation (spontaneous hydrolysis) ([5]; relative to 5-CFDA, 15 µM, PBS containing 0.6 % glutaraldehyde, pH ~7, 37°C, 0-60 min): eight times higher

From patent EP3050886A1, “Fluorescent dyes and dye precursors” (Bürkert Werke GmbH, priority 2015, dated 2016)
